Assay results published in patent US9234025B2, “Extracellular allosteric inhibitor binding domain from a tyrosine kinase receptor” (SANOFI, priority 2009, dated 2016).

Columns and labels:
[1] = target: T1, FGFR2 (Homo sapiens, UniProt P21802); experiment: FGFR2 multimerization; format: biochemical
T1 construct: or the expression of the entire intact receptor in its native environment

[2] = test system: PANC02 cells; experiment: PANC02 proliferation; format: cell-based; details: 100 nM SSR; 100 ng/ml FGF7 with or without VEGF; FGFR2-IIIb
Experimental: Cell proliferation was analysed on exponentially growing cells that were starved for 16 hours in 100 μl RPMI 1640 (Invitrogen, 32404-014) with 0.2% FBS (Hyclone, SH30070.03), 2 mM glutamine, MEM non-essential amino-acid 1× (Gibco, 11140-035), MEM sodium pyruvate 1× (Gibco, 11360-039) and seeded at 4,000 cells/well in 96-well microplates. After exposure to mitogens and/or SSR for 72 hours, cell proliferation was assessed with the use of the CellTiter 96 AQueous One Solution Cell Proliferation Assay (Promega, Madison, Wis., USA) according to manufacturer's instructions. Cell migration was assessed by a modified Boyden chamber assay, by using 24-well inserts containing 8 μm pore size transwell permeable supports with a polycarbonate membrane (Costar, Corning Inc.). Exponentially growing cells were starved in 0.2% FBS containing medium for 16 hours and resuspended at 5×10^5 cells/ml in the same low serum medium. 100 μl of the cell suspension were seeded in the upper chamber, while chemoattractants and/or SSR were placed in the lower chamber. 10% FBS containing medium was used a positive control. After 6 hours incubation at 37° C., cells on the upper side of the membrane were scraped using a cotton swab, while migrated cells on the lower surface were fixed with 4% formaldehyde and nuclei stained with DAPI for quantification.

[3] = target: T2, FGFR2^∂23 (Homo sapiens, UniProt P21802); experiment: isothermal titration calorimetry (ITC), FGFR2; format: binding
T2 construct: FGFR2^∂23 (consisting of domain D2 and 3); made in house
Experimental: All calorimetric experiments were performed at 30° C. with a VP-ITC titration calorimeter (MicroCal Inc., Northampton, Mass.) as previously described^45. Titrations involved the addition of 10 μL aliquots of 1.25 mM SSR via a rotating stirrer-syringe to the solution cell containing 1.407 mL of the 10-20 μM interacting protein (i.e. FGFR2^∂123, FGFR2^∂23 and its described mutants and subdomains, FGFR3^∂123, FGF1, FGF2 and Follistatin (as negative control) at 4 min intervals. A constant stirring speed of 300 rpm was maintained and data were fitted to the standard noninteracting one site model supplied by MicroCal, with n fixed as 1.0. All measurements were performed in 10 mM HEPES pH7.2, 150 mM NaCl, and proteins were purified as previously described (Pellegrini et al., 2000). Mutagenesis was performed using the ‘site directed mutagenesis kit’ (Stratagene).

[4] = test system: AKT phosphorylation in HUVEC cells; experiment: western blot analysis of AKT phosphorylation in HUVEC; format: cell-based, human; details: phospho-AKT Ser473
Experimental: HUVE Cells (Promocell, C-12200) are seeded in 35 mm collagen I coated disk (BD Biocoat, 354456) at 0.5.10^6 cells in 2 ml of EBM medium (Clonetics, CC-3121) containing 2% FBS (Clonetics, CC-4101), 10 μg/ml hEGF (Clonetics, CC-4017) from the EGM singlequots kit (Clonetics, CC-4133), 1250 ng/ml heparin (Sigma, H3149) and 375 ng/ml ECGS (BD Biosciences, 356006). At 90% confluency, cells are starved overernight in 1.8 ml of RPMI 1640 (Invitrogen, 32404-014), 0.5% FCS, 2 mM glutamine, 1 mM non-essential amino acids (Invitrogen, 11140-050), sodium pyruvate (Invitrogen, 11360-070). The day after, cells are stimulated 10 min by 200 μl of equilibrated starvation medium that contains 10×FGF-4 (30 ng/ml; R&D, 235-F4-025) with or without 10×SSR (3 μM). Next, cells are rinsed with cold PBS and cell lysed with 75 μl RIPA that contains 2.5 mM orthovanadate and protease inhibitors cocktail (Sigma, P8340). Cell lysates were centrifuged at 12,000 g for 10 min, and the supernatants were collected. Proteins were separated on 4-20% Novex Tris-Glycine polyacrylamide gels (Invitrogen) and subsequently transferred onto nitrocellulose membranes (Invitrogen, IB3010-01). […] Signal of each spot is obtained following chemiluminescent detection with SuperSignal® West Dura Extended Duration Substrate (Thermo Scientific, 34076) and spot density is quantified using a Biolmaging System Chemigenius2 (Syngene).

[5] = target: T3, FGFR2^∂123 (Homo sapiens, UniProt P21802); experiment: anisotropy measurement, FGF1-lumio binding to FGFR2 ECD without Fc-tag; details: >1,000 fold molar excess of SSR; FGF1-lumio 1 μM
T3 construct: we purified the entire extracellular domain of FGFR2 without Fc-tag (FGFR2^∂123); made in house
Experimental: To assess whether SSR inhibits the binding of FGF1 to its binding pocket, we purified the entire extracellular domain of FGFR2 without Fc-tag (FGFR2^∂123) and measured the tumbling speed (as a parameter of anisotropy) of a fluorescent lumio-tagged FGF1 (FGF1-lumio; constant concentration of 1 μM) in the presence of varying concentrations of FGFR2^∂123 without (blue) or with (red) SSR (1 mM). When FGFR2^∂123 was added to FGF1-lumio, the tumbling speed of the ligand/receptor complex was slower than of FGF-lumio alone, because of its larger size.
One hallmark of allosteric interactions is the phenomenon of ‘probe-dependence’ i.e., variations in the magnitude and direction of an allosteric interaction depending on the nature of the orthosteric ligand-receptor complex with which the modulator is interacting (May et al., 2007). To determine whether the effects of SSR on ^125I-FGF2 binding in the SPA were dependent on the configuration of the engineered FGFR/Fc fusion protein plated on an artificial substrate, we next studied whether SSR inhibited the binding of a fluorescent lumio-tagged FGF1 (FGF1-lumio) to a purified ECD of FGFR2 without the Fc-tag (FGFR2^∂123), by measuring the tumbling speed as a parameter of anisotropy. When FGFR2^∂123 was added to FGF1-lumio, the tumbling speed of the ligand/receptor complex was slower than of FGF-lumio alone because of its larger size. […]

T2 sequence (P21802 148-366 limits assumed): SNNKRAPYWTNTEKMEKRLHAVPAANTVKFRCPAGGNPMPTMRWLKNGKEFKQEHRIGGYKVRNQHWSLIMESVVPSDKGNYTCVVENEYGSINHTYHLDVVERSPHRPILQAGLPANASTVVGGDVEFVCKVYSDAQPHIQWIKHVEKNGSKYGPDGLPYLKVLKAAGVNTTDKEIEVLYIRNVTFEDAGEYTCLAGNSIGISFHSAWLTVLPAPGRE
T3 sequence (P21802 22-377 limits assumed): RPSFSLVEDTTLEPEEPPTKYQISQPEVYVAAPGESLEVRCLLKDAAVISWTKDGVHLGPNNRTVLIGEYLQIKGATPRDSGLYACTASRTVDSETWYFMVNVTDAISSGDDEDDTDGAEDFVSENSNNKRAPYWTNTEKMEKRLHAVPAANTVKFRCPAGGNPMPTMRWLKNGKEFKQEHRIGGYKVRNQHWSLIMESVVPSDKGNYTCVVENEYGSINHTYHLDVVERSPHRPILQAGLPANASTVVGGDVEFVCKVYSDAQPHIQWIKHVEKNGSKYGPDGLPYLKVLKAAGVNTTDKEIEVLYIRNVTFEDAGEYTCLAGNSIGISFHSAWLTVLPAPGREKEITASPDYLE
T1 sequence (P21802 22-821): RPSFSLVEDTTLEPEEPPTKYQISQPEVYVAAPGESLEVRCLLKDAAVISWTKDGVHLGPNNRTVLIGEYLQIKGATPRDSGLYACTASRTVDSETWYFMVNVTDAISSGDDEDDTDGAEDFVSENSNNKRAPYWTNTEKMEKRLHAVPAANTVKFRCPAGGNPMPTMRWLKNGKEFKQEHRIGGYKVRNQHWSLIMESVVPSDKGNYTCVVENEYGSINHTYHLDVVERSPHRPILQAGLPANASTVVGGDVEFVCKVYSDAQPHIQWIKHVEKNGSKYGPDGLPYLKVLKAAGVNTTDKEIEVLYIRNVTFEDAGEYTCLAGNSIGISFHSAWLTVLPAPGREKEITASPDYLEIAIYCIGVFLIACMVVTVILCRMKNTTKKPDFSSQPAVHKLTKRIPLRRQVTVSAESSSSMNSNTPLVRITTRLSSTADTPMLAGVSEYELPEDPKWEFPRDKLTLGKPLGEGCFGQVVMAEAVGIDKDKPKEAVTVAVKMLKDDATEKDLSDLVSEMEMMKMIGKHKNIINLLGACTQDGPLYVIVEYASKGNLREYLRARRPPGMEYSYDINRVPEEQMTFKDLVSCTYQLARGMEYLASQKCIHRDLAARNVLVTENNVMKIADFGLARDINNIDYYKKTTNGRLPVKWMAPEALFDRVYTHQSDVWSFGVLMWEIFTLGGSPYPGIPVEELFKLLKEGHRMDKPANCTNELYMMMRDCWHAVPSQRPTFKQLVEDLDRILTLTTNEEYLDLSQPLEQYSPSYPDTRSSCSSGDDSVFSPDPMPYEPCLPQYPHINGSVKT

## COc1c(C)c(C(=O)c2ccc(N)c(C(=O)[O-])c2)n2ccccc12.[Na+] [SSR]
[1]
  FGFR2 dimerization (multimerization): not able to inhibit
[2]
  FGF7-induced PANC02 proliferation: blocked
[3]
  binding to FGFR2: bound
[4]
  FGF-induced AKT phosphorylation: inhibit
[5]
  tumbling speed (anisotropy) of FGF1-lumio/FGFR2^∂123 complex: failed to alter the tumbling speed of the complex
